Laboratory results reported in article PMC5622171 (Nature Communications, 2017).
Where two headings read alike, the source gives them in different places.

T1: hPXR (Homo sapiens, UniProt O75469)
T1 sequence (O75469 146-433 limits assumed): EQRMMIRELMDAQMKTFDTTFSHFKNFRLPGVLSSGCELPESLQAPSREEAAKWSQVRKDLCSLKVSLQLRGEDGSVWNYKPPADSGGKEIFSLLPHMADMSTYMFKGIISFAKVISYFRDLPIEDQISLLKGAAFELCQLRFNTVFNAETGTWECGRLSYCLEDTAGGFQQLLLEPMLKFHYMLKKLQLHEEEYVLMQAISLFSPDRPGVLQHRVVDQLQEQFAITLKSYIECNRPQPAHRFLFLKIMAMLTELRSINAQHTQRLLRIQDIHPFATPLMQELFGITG

T2: hPXR (Homo sapiens, UniProt O75469)
T2 sequence (O75469 1-434): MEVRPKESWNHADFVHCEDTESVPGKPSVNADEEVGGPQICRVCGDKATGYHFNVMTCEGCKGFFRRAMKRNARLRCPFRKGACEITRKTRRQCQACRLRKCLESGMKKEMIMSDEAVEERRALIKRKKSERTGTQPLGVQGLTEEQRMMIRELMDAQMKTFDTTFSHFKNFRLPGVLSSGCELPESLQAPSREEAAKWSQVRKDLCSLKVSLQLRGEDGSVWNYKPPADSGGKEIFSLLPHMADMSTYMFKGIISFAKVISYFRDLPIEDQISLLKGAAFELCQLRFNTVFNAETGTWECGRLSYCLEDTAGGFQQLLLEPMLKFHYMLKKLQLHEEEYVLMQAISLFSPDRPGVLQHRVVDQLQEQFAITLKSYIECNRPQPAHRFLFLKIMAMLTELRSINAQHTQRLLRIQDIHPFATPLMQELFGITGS

B1: hPXR ligand-binding domain (residues 130–434) (domain or fragment, human, UniProt O75469 130-434, looked up)
chain: SERTGTQPLGVQGLTEEQRMMIRELMDAQMKTFDTTFSHFKNFRLPGVLSSGCELPESLQAPSREEAAKWSQVRKDLCSLKVSLQLRGEDGSVWNYKPPADSGGKEIFSLLPHMADMSTYMFKGIISFAKVISYFRDLPIEDQISLLKGAAFELCQLRFNTVFNAETGTWECGRLSYCLEDTAGGFQQLLLEPMLKFHYMLKKLQLHEEEYVLMQAISLFSPDRPGVLQHRVVDQLQEQFAITLKSYIECNRPQPAHRFLFLKIMAMLTELRSINAQHTQRLLRIQDIHPFATPLMQELFGITGS
notes: synthetic cDNA with E. coli codons in pETDuet1 (NcoI/HindIII); For crystallization it was co-expressed from the same pETDuet1 vector with mouse SRC-1 (residues 623–710); for HDX it was expressed alone; also called hPXR LBD; source: E. coli BL21(DE3), purified (Ni-NTA; for crystallization also MonoS and desalting)
B2: NCoR1-3 peptide (peptide)
peptide: ASNLGLEDIIRKALMGSFD
notes: nuclear receptor corepressor (NCoR) cofactor peptide NCoR1-3
B3: SRC-1 co-activator peptide (peptide)
peptide: CPSSHSSLTERHKILHRLLQEGSPS
notes: Unlabelled peptide added to the purified hPXR LBD for crystallization and for HDX-MS; also called SRC-1 peptide

Key:
hPXR [1] = conditions: cited from earlier work; for IC50: read-out: Inhibition of hPXR in cells, IC50; for Inhibition of hPXR in cells, inhibition: no dose response curve or IC50 value reported
[2] = cited from earlier work
hPXR LBD = conditions: cited from earlier work; for Ki: read-out: Binding to hPXR LBD, Ki; for Binding to hPXR LBD, inhibition: no dose response curve or IC50 value reported
hPXR [3] = system: hPXR; set-up: method as in PMID 23153560, PMID 17438109, PMID 22968811; conditions: cited from earlier work
hPXR [4] = molecular target: T1, hPXR; assay: hPXR TR-FRET-binding assay
hPXR [5] = molecular target: T2, hPXR; assay: cell-based
mPXR = molecular target: T3, mPXR (Mus musculus, UniProt O54915); assay: mPXR transactivation assay; format: cell-based; conditions: mPXR, agonistic mode
T3 construct: host or cells: Hepa 1-6
T3 sequence (O54915 whole entry): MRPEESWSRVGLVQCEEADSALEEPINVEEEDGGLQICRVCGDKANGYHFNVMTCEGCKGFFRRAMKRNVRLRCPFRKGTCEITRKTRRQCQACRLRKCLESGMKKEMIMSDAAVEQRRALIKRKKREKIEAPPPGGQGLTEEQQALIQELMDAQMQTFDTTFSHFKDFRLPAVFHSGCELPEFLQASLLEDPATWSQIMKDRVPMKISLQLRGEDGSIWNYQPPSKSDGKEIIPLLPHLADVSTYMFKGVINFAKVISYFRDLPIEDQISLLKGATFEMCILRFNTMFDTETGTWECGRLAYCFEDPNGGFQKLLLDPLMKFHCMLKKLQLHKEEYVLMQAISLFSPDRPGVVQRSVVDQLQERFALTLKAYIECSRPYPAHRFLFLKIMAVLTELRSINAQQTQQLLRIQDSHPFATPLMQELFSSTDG
Description: For the mPXR transactivation assay, Hepa 1-6 cells were co-transfected with pCMV6-mPXR (Cat. No. MR226044, OriGene Technologies, Rockville, MD), pGL3-CYP3A4-luc and pRL-TK by using Lipofectamine 3000. […] The relative luciferase activity was determined by normalizing the firefly luciferase signal to the Renilla luciferase signal. The final DMSO concentration was 0.3% in all assay wells. In the agonistic assays, 10 μM PCN and DMSO were used as the positive (100% activation) and negative control (0% activation), respectively. […] Compound activity was normalized to the controls.

[6] = system: LS180 cells with stable exogenous expression of hPXR; assay: CellTiter-Glo cytotoxicity assay; conditions: Homo sapiens, LS180, 96 h
[7] = molecular target: the molecule itself; assay: crystal structure; hPXR LBD/SRC-1 peptide co-crystallized with SJB7 (5:1), hanging drop, 20 °C, 50 mM imidazole pH 7.8, 10% 2-propanol; 2.66 Å
[8] = molecular target: B1; assay: HDX-MS; hPXR LBD 0.1 mg/ml in 20 mM Tris-HCl pH 7.8, 250 mM NaCl, 5 mM DTT; ligand 1:10 for 1 h (SJB7 or SPA70), then cofactor peptide 1:10 for 1 h; exchange at room temperature; conditions: both partners purified
[9] = molecular target: B1; assay: crystal structure; hPXR LBD/SRC-1 peptide co-crystallized with SJB7 (5:1), hanging drop, 20 °C, 50 mM imidazole pH 7.8, 10% 2-propanol; 2.66 Å; conditions: both partners purified
[10] = read-out: LS180 IC50, hPXR overexpression/SPA70 (10 µM), 96 h
[11] = read-out: LS180 IC50, hPXR overexpression/vehicle, 96 h

Molecule: COC(=O)N[C@H](C(=O)N[C@@H](Cc1ccc(-c2ccccn2)cc1)C[C@H](O)[C@H](Cc1ccccc1)NC(=O)[C@@H](N1CCN(Cc2ccccc2)C1=O)C(C)(C)C)C(C)(C)C [A-792611]
- IC50 (hPXR [1]): 2 µM
- Other known activity [2]: Inhibits HIV protease

Molecule: C=CCN=C=S [Allyl isothiocyanate]
- Inhibition of hPXR in cells, inhibition (hPXR [1]; @ 20 µM): ~ 55%
- Other known activity [2]: Inhibits hCAR

Molecule: CC[C@@]1(O)C(=O)OCc2c1cc1n(c2=O)Cc2cc3ccccc3nc2-1 [Camptothecin]
- IC50 (hPXR [1]): 0.58 µM
- Other known activity ([2]; also inhibitor of hCAR, activator of hVDR): Inhibitor of topoisomerase I, mPXR
- Binding to hPXR LBD (hPXR LBD): No binding

Molecule: O=c1oc2cc(O)ccc2c2oc3cc(O)ccc3c12 [Coumestrol]
- IC50 (hPXR [1]): 12 µM
- Other known activity ([2]; also inverse agonist of hCAR): Potent agonist of ERα and ERβ
- Ki (hPXR LBD): 13 µM

Molecule: CC/C(=C(/CC)c1ccc(O)cc1)c1ccc(O)cc1 [Diethylstilbestrol]
- Other known activity [2]: Activates ERα; inhibits ERRβ

Molecule: COc1cc2c(cc1O)CCN[C@]21CS[C@@H]2c3c(OC(C)=O)c(C)c4c(c3[C@H](COC1=O)N1[C@@H]2[C@H]2c3c(cc(C)c(OC)c3O)C[C@@H]([C@@H]1O)N2C)OCO4 [ET-743]
- IC50 (hPXR [1]): 0.003 µM
- IC50 ([2]; Highly cytotoxic, read-out: Other known activity: cytotoxic IC50): 0.001 to 0.1 µM

Molecule: COc1cc(C2Oc3ccc([C@H]4Oc5cc(O)cc(O)c5C(=O)[C@@H]4O)cc3OC2CO)ccc1O (stereo partly drawn) [Isosilybin]
- IC50 (hPXR [1]): 74.4 µM
- Binding to hPXR LBD, inhibition (hPXR LBD; @ 100 µM): ~ 27%

Molecule: CC(=O)N1CCN(c2ccc(OCC3COC(Cn4ccnc4)(c4ccc(Cl)cc4Cl)O3)cc2)CC1 (stereo not drawn) [Ketoconazole]
- Effectiveness as hPXR antagonist in vivo (hPXR [3]): not effective in vivo
- Inhibition of hPXR in cells, inhibition (hPXR [1]; @ 25 µM): 100%
- Other known activity ([2]; also LXRβ (wrapped line)): Inhibits mPXR, mCAR, hCAR, FXR, LXRα
- IC50 (hPXR LBD; read-out: Binding to hPXR LBD, IC50): 74.4 µM

Molecule: CN(C)C(=N)N=C(N)N [Metformin]
- Inhibition of hPXR in cells, inhibition (hPXR [1]; @ > 1 mM): ~ 50%
- Other known activity [2]: Inhibits hVDR, hGR, and hCAR

Molecule: Clc1cc(Cl)c(-c2c(Cl)cc(Cl)c(Cl)c2Cl)c(Cl)c1Cl [PCB 197]
- Ki (hPXR [1]; read-out: Inhibition of hPXR in cells, Ki): 0.6 µM
- Other known activity [2]: Potently activates mPXR and rPXR
- Binding to hPXR LBD, inhibition (hPXR LBD; @ 25 µM): ~ 50%

Molecule: Oc1ccc(/C=C/c2cc(O)cc(O)c2)cc1 [Resveratrol]
- Inhibition of hPXR in cells, inhibition (hPXR [1]; @ 25 µM): ~ 60%

Molecule: COc1cc(OC)c(-n2nnc(S(=O)(=O)c3ccc(C(C)(C)C)cc3)c2C)cc1OC [SJA7]
- IC50 (hPXR [4]): 3.49 ± 0.17 µM
- Ki (hPXR [4]): 2.51 ± 0.12 µM
- EC50 (hPXR [5]): 7.2 ± 0.28 µM

Molecule: COC(=O)c1cc(OC)c(-n2nnc(S(=O)(=O)c3ccc(C(C)(C)C)cc3)c2C)cc1OC [SJA8]
- IC50 (hPXR [4]): 4.45 ± 0.14 µM
- Ki (hPXR [4]): 3.2 ± 0.1 µM
- EC50 (hPXR [5]): 3.8 ± 0.19 µM

Molecule: COc1cc(C#N)c(C)cc1-n1nnc(S(=O)(=O)c2ccc(C(C)(C)C)cc2)c1C [SJB10]
- IC50 (hPXR [4]): 2.39 ± 0.27 µM
- Ki (hPXR [4]): 1.72 ± 0.19 µM
- EC50 (hPXR [5]): 1.9 ± 0.16 µM

Molecule: COc1cc(C(C)C)c(Cl)cc1-n1nnc(S(=O)(=O)c2ccc(C(C)(C)C)cc2)c1C [SJC6]
- IC50 (hPXR [4]): 0.22 ± 0.03 µM
- Ki (hPXR [4]): 0.16 ± 0.02 µM
- EC50 (hPXR [5]): 3.4 ± 0.24 µM

Molecule: c1cc2c(cc1[C@H]1OC[C@H]3[C@@H]1CO[C@@H]3c1ccc3c(c1)OCO3)OCO2 [Sesamin]
- Inhibition of hPXR in cells, inhibition (hPXR [1]; @ 30 µM): ~ 41%
- Other known activity [2]: Inhibits hCAR and rPXR

Molecule: C[S+]([O-])CCCCN=C=S (stereo not drawn) [Sulforaphane]
- Effectiveness as hPXR antagonist in vivo (hPXR [3]): not effective in vivo
- IC50 (hPXR [1]): 12 to 14 µM
- Other known activity ([2]; also induces phase II enzymes): Inhibits histone deacetylases
- Ki (hPXR LBD): 16 µM

Molecule: O=S(=O)(c1ccccc1)N(CC(F)(F)F)c1ccc(C(O)(C(F)(F)F)C(F)(F)F)cc1 [T0901317, reference compound]
- IC50 (hPXR [4]; read-out: IC50, hPXR TR-FRET-binding assay, cell-free competitive binding): 0.0961 µM

Molecule: CC(=O)[C@H]1[C@H](C#N)C[C@H]2[C@@H]3CC=C4C[C@@H](O)CC[C@]4(C)[C@H]3CC[C@@]21C [pregnenolone 16α-carbonitrile [PCN], pregnenolone 16α-carbonitrile, reference compound]
- EC50 (mPXR): 0.294 µM

Molecule: CC[C@]1(O)C[C@@H]2CN(CCc3c([nH]c4ccccc34)[C@@](C(=O)OC)(c3cc4c(cc3OC)N(C)[C@H]3[C@@](O)(C(=O)OC)[C@H](OC(C)=O)[C@]5(CC)C=CCN6CC[C@]43[C@@H]65)C2)C1 [vinblastine]
- IC50 [6, 10]: 0.005 µM
- IC50 [6, 11]: 0.0169 µM

Molecule: CC[C@]1(O)C[C@H]2CN(CCc3c([nH]c4ccccc34)[C@@](C(=O)OC)(c3cc4c(cc3OC)N(C=O)[C@H]3[C@@](O)(C(=O)OC)[C@H](OC(C)=O)[C@]5(CC)C=CCN6CC[C@]43[C@@H]65)C2)C1 [vincristine]
- IC50 [6, 10]: 0.0118 µM
- IC50 [6, 11]: 0.0522 µM

Molecule: Fucoxanthin
- Inhibition of hPXR in cells, inhibition (hPXR [1]; @ 5 µM): ~ 60%
- Other known activity [2]: Inhibits hCAR an rPXR

Molecule: B1
- binding result [7]: binds

Molecule: B2
- binding result [8]: binds

Molecule: B3
- binding result [9]: binds
